Test results taken from patent publication US9611251B2, “Substituted piperidine compounds and their use as orexin receptor modulators” (Janssen Pharmaceutica NV, priority 2013, dated 2017).

target: human orexin 2 receptor (Homo sapiens (Human), UniProt O43614); assay: Human orexin 2 receptor radioligand binding ([3H]-EMPA); settings: averages of 2-20 runs, read-out: hOX2 Ki
Protocol: Data are analyzed using pc-Sandy macro and graphed on Graphpad Prism 5. For analysis, each concentration point is averaged from triplicate values and the averaged values are plotted on Graphpad Prism. The IC50 was determined by applying the following equation (GraphPad Prism 5.0, SanDiego) for one site competition where X=log (concentration) and Y=specific binding. Top denotes the total [^3H]-(1-(5-(2-fluoro-phenyl)-2-methyl-thiazol-4-yl)-1-((S)-2-(5-phenyl-(1,3,4)oxadiazol-2-ylmethyl)-pyrrolidin-1-yl)-methanone) binding, bottom denotes the nonspecific [^3H]-(1-(5-(2-fluoro-phenyl)-2-methyl-thiazol-4-yl)-1-((S)-2-(5-phenyl-(1,3,4)oxadiazol-2-ylmethyl)-pyrrolidin-1-yl)-methanone) binding. Graphpad Prism calculates Ki value from IC50 and the pre-determined Kd values for [^3H]-(1-(5-(2-fluoro-phenyl)-2-methyl-thiazol-4-yl)-1-((S)-2-(5-phenyl-(1,3,4)oxadiazol-2-ylmethyl)-pyrrolidin-1-yl)-methanone) and [3H]-EMPA. The Ki for each compound is then uploaded into 3DX. Each run comprises individual compounds in triplicate.
Human Orexin 2 Receptor Radioligand Binding Studies
HEK293 stably expressing human orexin 2 receptor (Genebank accession number NM_001526) were grown to confluency in DMEM (Hyclone, cat #SH30022), 10% FBS, 1×Pen/Strep, 1× NaPyruvate, 10 mM HEPES, 600 ug/ml G418 media on 150 cm^2 tissue culture plates, washed with 5 mM EDTA in PBS (HyClone Dulbecco's Phosphate Buffered Saline 1× with Calcium and Magnesium, Cat #SH30264.01, hereafter referred to simply as PBS) and scraped into 50 ml tubes. After centrifugation (2K×G, 5 min at 4° C.), the supernatant was aspirated and the pellets frozen and stored at −80° C. […] Each cell pellet from a 15 cm plate was resuspended in 10 mL, stored on ice, and homogenized for 45 sec just prior to addition to the reactions. Competition binding experiments in 96 well polypropylene plates were performed using [^3H]-EMPA (Moraveck Corporation, specific activity=29.6 Ci/mmol), diluted to a 5 nM concentration in PBS (2 nM final concentration). […] The final concentration of DMSO in the reactions is equal to or less than 0.1%. Total and nonspecific binding was determined in the absence and presence of 10 μM almorexant. The total volume of each reaction is 200 μL (20 μL of diluted compounds, 80 μL of [^3H]-EMPA diluted in PBS and 100 μL of the cell suspension). […] The plates were washed 3 times by aspirating 30 ml PBS through the plates. Plates were dried in 55° C. oven for 60 min, scintillation fluid was added, and the radioactivity was counted on a Topcount (Packard).

Chain of human orexin 2 receptor (O43614 whole entry): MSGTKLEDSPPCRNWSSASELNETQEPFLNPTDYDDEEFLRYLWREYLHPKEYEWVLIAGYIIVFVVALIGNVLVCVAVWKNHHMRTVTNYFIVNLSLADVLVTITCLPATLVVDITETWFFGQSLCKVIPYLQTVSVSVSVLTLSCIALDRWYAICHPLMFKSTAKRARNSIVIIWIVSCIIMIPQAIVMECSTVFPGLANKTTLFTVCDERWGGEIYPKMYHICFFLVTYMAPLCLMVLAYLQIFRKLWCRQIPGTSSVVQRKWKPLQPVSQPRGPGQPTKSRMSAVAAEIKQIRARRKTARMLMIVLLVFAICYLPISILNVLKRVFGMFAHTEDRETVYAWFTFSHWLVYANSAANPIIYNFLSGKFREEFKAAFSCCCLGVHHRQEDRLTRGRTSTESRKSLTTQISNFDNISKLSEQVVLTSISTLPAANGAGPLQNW

| Ki [nM] | Structure (SMILES) |
| --- | --- |
| 243 | Cc1ccc(-c2ncccn2)c(C(=O)N2CCC[C@@H](Nc3cc(C)nc(C(F)(F)F)n3)[C@@H]2C)c1 (racemic) [Example 7, (±)-trans-(5-methyl-2-(pyrimidin-2-yl)phenyl)(2-methyl-3-((6-methyl-2-(trifluoromethyl)pyrimidin-4-yl)amino)piperidin-1-yl)methanone] |
| 2260 | Cc1cc(N[C@@H]2CCCN(C(=O)c3cc(F)ccc3-c3ncccn3)[C@H]2C)nc(C(F)(F)F)n1 (racemic) [Example 9, (±)-trans-(5-fluoro-2-(pyrimidin-2-yl)phenyl)(2-methyl-3-((6-methyl-2-(trifluoromethyl)pyrimidin-4-yl)amino)piperidin-1-yl)methanone] |
| 463 | Cc1ccc(-n2nccn2)c(C(=O)N2CCC[C@@H](Oc3ccc(C(F)(F)F)cn3)[C@@H]2C)n1 (racemic) [Example 109, (±)-trans-(2-methyl-3-((5-(trifluoromethyl)pyridin-2-yl)oxy)piperidin-1-yl)(6-methyl-3-(2H-1,2,3-triazol-2-yl)pyridin-2-yl)methanone] |
| 1900 | Cc1ccc(C(=O)N2CCC[C@@H](Nc3cnc(Cl)cn3)[C@@H]2C)c(-n2nccn2)c1 (relative stereo) [Example 180, ((2S*,3R*)-3-((5-chloropyrazin-2-yl)amino)-2-methylpiperidin-1-yl)(4-methyl-2-(2H-1,2,3-triazol-2-yl)phenyl)methanone] |
| 315 | CCOc1ccc(C)nc1C(=O)N1CCC[C@@H](Nc2ccc(C(F)(F)F)cn2)[C@@H]1C (relative stereo) [Example 194, (3-ethoxy-6-methylpyridin-2-yl)((2S*,3R*)-2-methyl-3-((5-(trifluoromethyl)pyridin-2-yl)amino)piperidin-1-yl)methanone] |
| 985 | C[C@H]1[C@H](Nc2ncc(C(F)(F)F)cn2)CCCN1C(=O)c1cccc(F)c1-c1ncccn1 (relative stereo) [Example 200, (3-fluoro-2-(pyrimidin-2-yl)phenyl)((2S*,3R*)-2-methyl-3-((5-(trifluoromethyl)pyrimidin-2-yl)amino)piperidin-1-yl)methanone] |
| 1500 | C[C@H]1[C@H](Nc2ncc(C(F)(F)F)cn2)CCCN1C(=O)c1ccc(F)cc1-c1ncccn1 (relative stereo) [Example 202, (4-fluoro-2-(pyrimidin-2-yl)phenyl)((2S*,3R*)-2-methyl-3-((5-(trifluoromethyl)pyrimidin-2-yl)amino)piperidin-1-yl)methanone] |
| 385 | C[C@H]1[C@H](Nc2cnc(C(F)(F)F)cn2)CCCN1C(=O)c1cccc(F)c1-c1ncccn1 (relative stereo) [Example 207, (3-fluoro-2-(pyrimidin-2-yl)phenyl)((2S*,3R*)-2-methyl-3-((5-(trifluoromethyl)pyrazin-2-yl)amino)piperidin-1-yl)methanone] |
| 742 | C[C@H]1[C@H](Oc2ccc(C(F)(F)F)cn2)CCCN1C(=O)c1ncccc1-c1ncccn1 (relative stereo) [Example 210, ((2S*,3R*)-2-methyl-3-((5-(trifluoromethyl)pyridin-2-yl)oxy)piperidin-1-yl)(3-(pyrimidin-2-yl)pyridin-2-yl)methanone] |
| 190 | C[C@H]1[C@H](Nc2ccc(Cl)cn2)CCCN1C(=O)c1ccccc1-n1nccn1 [Example 100, (2-(2H-1,2,3-triazol-2-yl)phenyl)((2S,3R)-3-((5-chloropyridin-2-yl)amino)-2-methylpiperidin-1-yl)methanone] |
| 301 | Cc1ccc(-n2nccn2)c(C(=O)N2CCC[C@@H](Oc3ccc(C(F)(F)F)cn3)[C@@H]2C)n1 [Example 108, ((2S,3R)-2-methyl-3-((5-(trifluoromethyl)pyridin-2-yl)oxy)piperidin-1-yl)(6-methyl-3-(2H-1,2,3-triazol-2-yl)pyridin-2-yl)methanone] |

| Structure (SMILES) | Ki [nM] |
| --- | --- |
| Cc1ccc(C(=O)N2CCC[C@@H](Nc3nc4ccccc4o3)[C@@H]2C)c(-n2nccn2)n1 [Example 75, ((2S,3R)-3-(benzo[d]oxazol-2-ylamino)-2-methylpiperidin-1-yl)(6-methyl-2-(2H-1,2,3-triazol-2-yl)pyridin-3-yl)methanone] | 8950 |
